BindingDB's records for doi:10.1021/jm970856n (Novartis Pharma, 1998)

Target: T1, SHC-transforming protein 2 (Homo sapiens, UniProt P98077)
T1 sequence (P98077 whole entry): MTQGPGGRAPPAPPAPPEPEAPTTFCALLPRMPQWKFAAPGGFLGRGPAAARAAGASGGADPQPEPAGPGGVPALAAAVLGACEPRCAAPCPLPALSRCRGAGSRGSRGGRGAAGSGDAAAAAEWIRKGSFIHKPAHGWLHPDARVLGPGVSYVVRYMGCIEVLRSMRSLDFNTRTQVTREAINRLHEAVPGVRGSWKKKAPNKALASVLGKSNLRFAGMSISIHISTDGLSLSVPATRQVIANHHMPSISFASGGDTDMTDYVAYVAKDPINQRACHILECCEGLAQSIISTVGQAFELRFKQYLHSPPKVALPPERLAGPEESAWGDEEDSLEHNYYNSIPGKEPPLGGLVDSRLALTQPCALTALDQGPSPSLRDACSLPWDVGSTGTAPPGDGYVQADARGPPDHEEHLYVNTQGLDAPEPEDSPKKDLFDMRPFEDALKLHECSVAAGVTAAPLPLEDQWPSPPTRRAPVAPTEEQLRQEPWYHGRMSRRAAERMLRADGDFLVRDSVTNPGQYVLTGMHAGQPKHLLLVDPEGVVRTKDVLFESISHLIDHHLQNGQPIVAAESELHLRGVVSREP
Experiment: Inhibition of binding to SH2 domain of SHC-PTB

IC50: > 5 µM
Structure (SMILES): NC(=O)CC(NC(=O)C1(NC(=O)C(N)Cc2ccc(OP(=O)(O)O)c(N)c2)CCCCC1)C(N)=O (stereo unspecified) [Phosphoric acid mono-(2-amino-4-{2-amino-2-[1-(1,2-dicarbamoyl-ethylcarbamoyl)-cyclohexylcarbamoyl]-ethyl}-phenyl) ester]
